By IC50 is commonly meant the concentration needed to halve the response being measured.

Consider one compound from article PMC8141582, “Synergistic Effect of Statins and Abiraterone Acetate on the Growth Inhibition of Neuroblastoma via Targeting Androgen Receptor” (Frontiers in Oncology, 2021).

The test system of one assay is K562 cells. Details: key: Positive: Simvastatin alone inhibited the progression of cancer; Negative: Simvastatin alone could not inhibit the progression of cancer. Conditions: Chronic Myelogenous Leukemia, i.p., cited from earlier work.
In the next assay the test system is SW 480 cells. Details: method as in Supplement [10]; key: Positive: Simvastatin alone inhibited the progression of cancer; Negative: Simvastatin alone could not inhibit the progression of cancer. Conditions: Colorectal Cancer, 6.0 mg/kg/day, oral; ref Supplement [10]; cited from earlier work.
Another assay deals with HCT116 or HT29 cells. Details: method as in Supplement [11]; key: Positive: Simvastatin alone inhibited the progression of cancer; Negative: Simvastatin alone could not inhibit the progression of cancer. Conditions: Colorectal Cancer, 50.0 mg/kg/day, oral; ref Supplement [11]; cited from earlier work.
Assay [1] deals with specimens of T-ALL patients. Details: method as in Supplement [25]; key: Positive: Simvastatin alone inhibited the progression of cancer; Negative: Simvastatin alone could not inhibit the progression of cancer. The note with it: Pediatric Acute Lymphoblastic Leukemia, 20.0 mg/kg/day, oral; ref Supplement [25]; cited from earlier work.
For a further assay, the system named is 22RV1 cells. Details: key to Results (simvastatin alone): Positive: Simvastatin alone inhibited the progression of cancer; Negative: Simvastatin alone could not inhibit the progression of cancer. The note with it: Prostate Cancer, 25.0 mg/kg/day, i.p.; ref Supplement [15]; cited from earlier work.
Assay [2] relates to TSC2-null cells from the primary tumors. Details: method as in Supplement [3]; key: Positive: Simvastatin alone inhibited the progression of cancer; Negative: Simvastatin alone could not inhibit the progression of cancer. Conditions: Pulmonary Lymphangioleiomyomatosis, 100.0 mg/kg/day, oral; ref Supplement [3]; cited from earlier work.
A further assay deals with HepG2 cells. Details: method as in Supplement [7]; key: Positive: Simvastatin alone inhibited the progression of cancer; Negative: Simvastatin alone could not inhibit the progression of cancer. Conditions: Hepatocellular Carcinoma, 40.0 mg/kg/day, i.p.; ref Supplement [7]; cited from earlier work.
The subject of another assay is PC-3 cells. Details: key to Results (simvastatin alone): Positive: Simvastatin alone inhibited the progression of cancer; Negative: Simvastatin alone could not inhibit the progression of cancer. Conditions: Prostate Cancer, i.p., cited from earlier work.
For the next assay, the system named is A549 cells. Details: method as in Supplement [5]; key: Positive: Simvastatin alone inhibited the progression of cancer; Negative: Simvastatin alone could not inhibit the progression of cancer. Conditions: Lung Adenocarcinoma, 10.0 mg/kg/day, i.v; ref Supplement [5]; cited from earlier work.
A further assay has as its system SH-SY5Y cells. Kind of assay: MTT cell viability assay, SH-SY5Y. It is filed as cell-based. Conditions: Homo sapiens, NB cell line, 72 h. Here is the method:
N2a, SH-SY5Y, SK-N-BE (2), 10A, HUVEC, HL7702 cells were plated in 96-well plates at 8,000 cells/well, respectively, in complete media in triplicate wells for each dose and cultured for 18 h. The neuroblastoma cell lines, N2a, SH-SY5Y, and SK-N-BE (2), and non-cancer cell lines, 10A, HUVEC, and HL7702, were treated with simvastatin and fluvastatin in a range of doses from 0 to 20 μM and with AA from 0 to 30 μM; N2a, SH-SY5Y SK-N-BE (2), were treated with rosuvastatin in a range of doses from 0 to 100 μM for 72 h. Statins dissolved in DMSO and AA dissolved in ethanol. After 72 h treatment, the medium was added 0.5 mg/ml MTT reagent and incubated at 37°C for 4 h. Subsequently, the supernatant was aspirated, and cells were lysed in 150 µl DMSO, then shaken 10 min at 37°C. The optical density (OD) was measured at 570 and 630 nm using a plate reader.
For orientation: Tetrazolium dyes change colour on reduction, which living cells bring about.

The test system of another assay is HL7702 cells. Kind of assay: MTT cell viability assay, HL7702. The note with it: Homo sapiens, L02, normal cell line, 72 h. It is filed as cell-based. As to the method:
Statins dissolved in DMSO and AA dissolved in ethanol. After 72 h treatment, the medium was added 0.5 mg/ml MTT reagent and incubated at 37°C for 4 h. Subsequently, the supernatant was aspirated, and cells were lysed in 150 µl DMSO, then shaken 10 min at 37°C. The optical density (OD) was measured at 570 and 630 nm using a plate reader.

The subject of a further assay is N2a cells. Kind of assay: Wound healing assay, N2a. It is filed as cell-based, mouse. The note with it: 1.5 μM simvastatin, 48 h. Here is the method: N2a, SH-SY5Y, and SK-N-BE (2) cells were cultured in six-well plates (5 × 10^5cells/well) and incubated till they reached 90–100% confluence. The cells were then maintained in phenol red-free DMEM/DMEM-F12 with 2.5%FBS, in order to minimize the cell proliferation. A sterile 20 µl tip was used to create scratch wounds of the same width. The plates were then washed twice with phosphate-buffered saline (PBS) to remove the detached cells. Photos were taken at 0, 24, and 48 h, and the area covered by the cells enumerated the closure of the wounds. Each experiment was performed in triplicate.

Structures are written as SMILES. Where two headings read alike, the source gives them in different places.

With `CCC(C)(C)C(=O)O[C@H]1C[C@@H](C)C=C2C=C[C@H](C)[C@H](CC[C@@H]3C[C@@H](O)CC(=O)O3)[C@H]21` [Simvastatin], the “Results (simvastatin alone)” value is reported as “Positive” in the assay on K562 cells (1.3 mg/kg/day or 2.0 mg/kg/day, ref Supplement [26]); “Positive” in the assay with K562 cells (7.1 mg/kg/day or 14.3 mg/kg/day, ref Supplement [27]); “Positive” in the assay with SW 480 cells; “Positive” in the assay with HCT116 or HT29 cells; “Negative” in assay [1]; “Positive” in the assay on 22RV1 cells. Moreover, the “Results (simvastatin alone)” value is recorded as “Positive” in assay [2]; “Positive” in the assay on HepG2 cells; “Positive” in the assay on PC-3 cells (2.0 mg/kg/day or 4.0 mg/kg/day, ref Supplement [18]); “Positive” in the assay on PC-3 cells (2.1 mg/kg/day or 21.0 mg/kg/day, ref Supplement [19]); “Positive” in the assay on PC-3 cells (4.0 mg/kg/day, ref Supplement [17]); “Positive” with A549 cells. The IC50 came to 9.69 µM in the assay on SH-SY5Y cells and 20.6 µM in the assay on HL7702 cells. For the same compound, the “migration vs control group” value with N2a cells is reported as “significantly higher”.
